# Test results published in patent publication US7592366B2, “Therapeutic compounds” (Allergan, Inc., priority 2006, dated 2009).
# Experiments:
# [1] = target: T1, hEP2/Gqs5 (Homo sapiens, UniProt P43116); test: FLIPR calcium signal, EP2; assay type: cell-based; conditions: HEK-293(EBNA) cells
# T1 construct: expressed in transfected cells; host or cells: HEK-293(EBNA)
# Procedure: (§1) HEK-293(EBNA) cells, stably expressing one type or subtype of recombinant human prostaglandin receptors (prostaglandin receptors expressed: hDP/Gqs5; hEP1; hEP2/Gqs5; hEP3A/Gqi5; hEP4/Gqs5; hFP; hIP; hTP), were cultured in 100 mm culture dishes in high-glucose DMEM medium containing 10% fetal bovine serum, 2 mM l-glutamine, 250 μg/ml geneticin (G418) and 200 μg/ml hygromycin B as selection markers, and 100 units/ml penicillin G, 100 μg/ml streptomycin and 0.25 μg/ml amphotericin B.
# (§2) Cells were seeded at a density of 5×10^4 cells per well in Biocoat® Poly-D-lysine-coated black-wall, clear-bottom 96-well plates (Becton-Dickinson) and allowed to attach overnight in an incubator at 37° C. Cells were then washed two times with HBSS-HEPES buffer (Hanks Balanced Salt Solution without bicarbonate and phenol red, 20 mM HEPES, pH 7.4) using a Denley Cellwash plate washer (Labsystems). After 45 minutes of dye-loading in the dark, using the calcium-sensitive dye Fluo-4 […] at a final concentration of 2 μM, plates were washed four times with HBSS-HEPES buffer to remove excess dye leaving 100 μl in each well. Plates were re-equilibrated to 37° C. for a few minutes.
# (§3) Cells were excited with an Argon laser at 488 nm, and emission was measured through a 510-570 nm bandwidth emission filter (FLIPR™, Molecular Devices, Sunnyvale, Calif.). Drug solution was added in a 50 μl volume to each well to give the desired final concentration. The peak increase in fluorescence intensity was recorded for each well. On each plate, four wells each served as negative (HBSS-HEPES buffer) and positive controls (standard agonists: BW245C (hDP); PGE2 (hEP1; hEP2/Gqs5; hEP3A/Gqi5; hEP4/Gqs5); PGF2α (hFP); carbacyclin (hIP); U-46619 (hTP), depending on receptor). The peak fluorescence change in each drug-containing well was then expressed relative to the controls.
# (§4) Compounds were tested in a high-throughput (HTS) or concentration-response (CoRe) format. In the HTS format, forty-four compounds per plate were examined in duplicates at a concentration of 10^−5 M. To generate concentration-response curves, four compounds per plate were tested in duplicates in a concentration range between 10^−5 and 10^−11 M. The duplicate values were averaged. In either, HTS or CoRe format each compound was tested on at least 3 separate plates using cells from different passages to give an n≧3.
# [2] = target: T2, EP4 receptors (Homo sapiens, UniProt P35408); test: Radioligand binding [3H]PGE2, EP4 Ki; conditions: [3H]PGE2 competition, HEK-293 cells expressing EP4
# T2 construct: expressed in transfected cells; host or cells: HEK-293
# T2 sequence (P35408 whole entry): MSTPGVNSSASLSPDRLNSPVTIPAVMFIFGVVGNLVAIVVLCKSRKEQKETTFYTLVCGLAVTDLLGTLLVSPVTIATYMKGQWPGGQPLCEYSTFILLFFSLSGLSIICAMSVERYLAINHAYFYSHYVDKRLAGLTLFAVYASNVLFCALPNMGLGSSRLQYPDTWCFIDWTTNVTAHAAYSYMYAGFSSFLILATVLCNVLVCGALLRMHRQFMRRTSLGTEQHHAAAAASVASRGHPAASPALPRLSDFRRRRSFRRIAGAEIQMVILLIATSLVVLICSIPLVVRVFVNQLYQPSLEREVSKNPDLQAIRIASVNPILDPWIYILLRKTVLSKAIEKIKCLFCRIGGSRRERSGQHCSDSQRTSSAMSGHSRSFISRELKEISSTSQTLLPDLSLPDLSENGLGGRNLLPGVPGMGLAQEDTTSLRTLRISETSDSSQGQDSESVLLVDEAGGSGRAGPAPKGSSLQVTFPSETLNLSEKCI
# Procedure: (§5) HEK-293 cells stably expressing the human or feline FP receptor, or EP1, EP2, or EP4 receptors were washed with TME buffer, scraped from the bottom of the flasks, and homogenized for 30 sec using a Brinkman PT 10/35 polytron. TME buffer was added to achieve a final 40 ml volume in the centrifuge tubes (the composition of TME is 100 mM TRIS base, 20 mM MgCl2, […]; 10N HCl is added to achieve a pH of 7.4).
# (§6) The cell homogenate was centrifuged at 19000 r.p.m. for 20 min at 4° C. using a Beckman Ti-60 rotor. The resultant pellet was resuspended in TME buffer to give a final 1 mg/ml protein concentration, as determined by Biorad assay. Radioligand binding competition assays vs. [^3H-]17-phenyl PGF2α (5 nM) were performed in a 100 μl volume for 60 min. Binding reactions were started by adding plasma membrane fraction. The reaction was terminated by the addition of 4 ml ice-cold TRIS-HCl buffer and rapid filtration through glass fiber GF/B filters using a Brandel cell harvester. The filters were washed 3 times with ice-cold buffer and oven dried for one hour.
# (§7) [^3H-] PGE2 (specific activity 180 Ci mmol) was used as the radioligand for EP receptors. [^3H] 17-phenyl PGF2α was employed for FP receptor binding studies. Binding studies employing EP1, EP2, EP4 and FP receptors were performed in duplicate in at least three separate experiments. A 200 μl assay volume was used. Incubations were for 60 min at 25° C. and were terminated by the addition of 4 ml of ice-cold 50 mM TRIS-HCl, followed by rapid filtration through Whatman GF/B filters and three additional 4 ml washes in a cell harvester (Brandel). Competition studies were performed using a final concentration of 5 nM [^3H]-PGE2, or 5 nM [^3H] 17-phenyl PGF2α and non-specific binding determined with 10^−5M of unlabeled PGE2, or 17-phenyl PGF2α, according to receptor subtype studied.
# [3] = target: T3, EP2 (Homo sapiens, UniProt P43116); test: cAMP assay, EP2; assay type: cell-based; design: expressed in transfected cells; host or cells: HEK-EBNA; conditions: HEK-EBNA cells expressing EP2
# T3 sequence (P43116 whole entry): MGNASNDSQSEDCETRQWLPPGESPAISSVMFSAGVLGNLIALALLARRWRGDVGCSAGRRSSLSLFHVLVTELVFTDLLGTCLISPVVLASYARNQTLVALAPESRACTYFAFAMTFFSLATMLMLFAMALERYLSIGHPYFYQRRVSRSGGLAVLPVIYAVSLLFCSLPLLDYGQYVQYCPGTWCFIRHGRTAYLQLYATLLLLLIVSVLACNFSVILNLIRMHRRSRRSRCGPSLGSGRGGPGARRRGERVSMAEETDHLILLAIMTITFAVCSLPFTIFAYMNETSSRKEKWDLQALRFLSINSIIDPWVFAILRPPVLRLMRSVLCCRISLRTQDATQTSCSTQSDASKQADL
# Procedure: A 384-well drug plate was prepared to contain 6 test compounds, PGE2 and cAMP in 16 serial dilutions in triplicate, using a Biomek station. HEK-EBNA cells expressing a target PG receptor subtype (EP2 or EP4) were suspended in a stimulation buffer (HBSS, 0.1% BSA, 0.5 mM IBMX and 5 mM HEPES, pH 7.4) in a density of 10^4 cells/5 μl. The reaction was initiated by mixing 5 μL drug dilutions with 5 μl of HEK-EBNA cells in a well, carried out for 30 min at room temperature, and followed by the addition of 5 μl anti-cAMP acceptor beads in the control buffer with Tween-20 (25 mM NaCl, 0.03% Tween-20, 5 mM HEPES, pH7.4). After 30 min in the dark at room temperature, the mixtures were incubated with 15 μl biotinylated-cAMP/strepavidin donor beads in Lysis/Detection buffer (0.1% BSA, 0.3% Tween-20 and 5 mM HEPES, pH7.4) for 45 min at the room temperature. Fluorescence changes were read using a Fusion-alpha HT microplate reader.
# [4] = tested on: normotensive dogs; test: Intraocular pressure and ocular surface hyperemia in normotensive dogs; assay type: in vivo, dog; design: scale not given here
# Excerpt: U.S. Pat. No. 7,091,231 describes the methods used for these in vivo tests.
# [5] = target: T3, EP2; test: Competition binding [3H]PGE2, EP2 Ki; design: expressed in transfected cells; host or cells: HEK 293; conditions: [3H]PGE2 competition, HEK 293 cells expressing human EP2
# Procedure: Competition binding experiments were performed in a medium containing Hank's balanced salt solution, Hepes 20 mM, pH 7.3, membranes (˜60 μg protein) or 2×10^5 cells from HEK 293 cells stably expressing human EP2 receptors, [^3H]PGE2 (10 nM) and various concentrations of test compounds in a total volume of 300 μl. Reaction mixtures were incubated at 23° C. for 60 min, and were filtered over Whatman GF/B filters under vacuum. Filters were washed three times with 5 ml ice-cold buffer containing 50 mM Tris/HCl (pH 7.3). Non-specific binding was estimated in the presence of excess unlabeled PGE2 (10 μM). Binding data fitted to the binding model for a single class of binding sites, using nonlinear regression analysis. IC50 values thus obtained were converted to Ki using the equation of Ki=(IC50/(1+[L]/KD) where [L] represents PGE2 concentration (10 nM) and KD the dissociation constant for [^3H]PGE2 at human EP2 receptors (40 nM).
# as §5, §6, §7
# [6] = target: T4, hEP4/Gqs5 (Homo sapiens, UniProt P35408); test: FLIPR calcium signal, EP4; assay type: cell-based; conditions: HEK-293(EBNA) cells
# T4 construct: expressed in transfected cells; host or cells: HEK-293(EBNA)
# T4 sequence (P35408 whole entry): as the sequence (P35408 whole entry) above
# Procedure: as §1, §2, §3, §4
# [7] = target: T5, hTP (Homo sapiens, UniProt P21731); test: FLIPR calcium signal, hTP; assay type: cell-based; conditions: read-out: Other Receptors (EC50 in nM) hTP
# T5 construct: expressed in transfected cells; host or cells: HEK-293(EBNA)
# T5 sequence (P21731 1-343): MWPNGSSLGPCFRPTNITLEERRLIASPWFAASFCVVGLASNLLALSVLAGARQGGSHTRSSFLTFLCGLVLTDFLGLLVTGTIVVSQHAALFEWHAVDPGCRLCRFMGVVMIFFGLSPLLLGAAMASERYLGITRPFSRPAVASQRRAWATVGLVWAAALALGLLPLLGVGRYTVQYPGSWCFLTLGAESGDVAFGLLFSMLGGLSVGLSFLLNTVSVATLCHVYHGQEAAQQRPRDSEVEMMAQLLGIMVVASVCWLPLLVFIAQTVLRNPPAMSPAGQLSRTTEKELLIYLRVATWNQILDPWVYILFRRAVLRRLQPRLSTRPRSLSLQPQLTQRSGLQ
# Procedure: as §1, §2, §3
# Compounds were tested in a high-throughput (HTS) or concentration-response (CoRe) format. […]
# [8] = target: T6, hDP/Gqs5 (Homo sapiens, UniProt Q13258); test: FLIPR calcium signal, hDP; assay type: cell-based; conditions: read-out: Other Receptors (EC50 in nM) hDP
# T6 construct: expressed in transfected cells; host or cells: HEK-293(EBNA)
# T6 sequence (Q13258 1-359): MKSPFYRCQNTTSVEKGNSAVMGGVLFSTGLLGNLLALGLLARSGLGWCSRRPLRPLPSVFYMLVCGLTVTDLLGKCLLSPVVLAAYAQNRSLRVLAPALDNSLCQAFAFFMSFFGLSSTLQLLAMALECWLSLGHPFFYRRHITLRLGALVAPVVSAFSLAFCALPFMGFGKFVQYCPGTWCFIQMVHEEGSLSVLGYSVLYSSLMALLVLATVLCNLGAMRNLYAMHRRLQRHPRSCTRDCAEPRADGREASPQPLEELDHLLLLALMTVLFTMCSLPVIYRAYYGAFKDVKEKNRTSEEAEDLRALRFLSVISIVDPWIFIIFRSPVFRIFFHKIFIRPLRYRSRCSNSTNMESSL
# Procedure: as §1, §2, §3, §4
# T1 sequence (P43116 whole entry): as the sequence (P43116 whole entry) above
EC50 [1],Ki [2],EC50 [3],"maximum ocular surface hyperemia (OSH) score ([4]; 0.001%, once daily for 4 days, at 74 h)",Ki [5],EC50 [6],EC50 [7],"maximum ocular surface hyperemia (OSH) score ([4]; 0.0001%, once daily for 5 days, at 74 h)","maximum ocular surface hyperemia (OSH) score ([4]; 0.0005%, once daily for 5 days, at 50 h)","maximum ocular surface hyperemia (OSH) score ([4]; 0.001%, once daily for 5 days, at 50 h)","maximum ocular surface hyperemia (OSH) score ([4]; 0.01%, once daily for 5 days, at 26 h)","maximum ocular surface hyperemia (OSH) score ([4]; 0.001%, once daily for 5 days, at 26 h)",EC50 [8],SMILES
13 nM,582 nM,0.05 nM,1.9,1 nM,> 10000 nM,–,–,–,–,–,–,–,"O=C(O)c1ccc(CCC[C@@H]2[C@@H](CCc3cc(Cl)nc(Cl)c3)[C@H](O)C[C@H]2Cl)s1 [11b, 5-(3-((1R,2R,3R,5R)-5-chloro-2-(2-(2,6-dichloropyridin-4-yl)ethyl)-3-hydroxycyclopentyl)propyl)-thiophene-2-carboxylic acid]"
18 nM,616 nM,0.09 nM,–,0.2 nM,> 10000 nM,> 10000 nM,0.8,1.75,1.8,2.5,–,–,"O=C(O)c1ccc(CCC[C@@H]2[C@@H](CCc3cc(Cl)cc(Cl)c3)[C@H](O)C[C@H]2Cl)s1 [11a, 5-(3-((1R,2R,3R,5R)-5-chloro-2-(3,5-dichlorophenethyl)-3-hydroxycyclopentyl)propyl)thiophene-2-carboxylic acid]"
–,–,–,–,–,–,–,–,–,–,–,0.9,–,"CC(C)OC(=O)c1ccc(CCC[C@@H]2[C@@H](CCc3cc(Cl)cc(CO)c3)[C@H](O)C[C@H]2Cl)s1 [compound 18, Isopropyl 5-(3-((1R,2R,3R,5R)-5-chloro-2-(3-chloro-5-(hydroxymethyl)phenethyl)-3-hydroxycyclopentyl)propyl)thiophene-2-carboxylate]"
287 nM,966 nM,0.4 nM,–,3 nM,> 10000 nM,–,–,–,–,–,–,15300 nM,"Cc1cc(C)cc(CC[C@@H]2[C@@H](CCCc3ccc(C(=O)O)s3)[C@H](Cl)C[C@H]2O)c1 [11e, 5-(3-((1R,2R,3R,5R)-5-chloro-2-(3,5-dimethylphenethyl)-3-hydroxycyclopentyl)propyl)thiophene-2-carboxylic acid]"
